Test results published in the CheMixHub viscosity set.
Values joined by “and” are separate entries in the source; they are usually repeats but may differ in a detail not shown here. Equal values may be shown once. ± gives the uncertainty stated by the source.

Experiment: xn = mol fraction of the nth substance listed

CCCCOCCO + O
viscosity (293.15 K, 101 kPa, x1 = 0.00631): 1.166 ± 0.015 mPa·s | viscosity (293.15 K, 101 kPa, x1 = 0.0131): 1.391 ± 0.015 mPa·s | viscosity (293.15 K, 101 kPa, x1 = 0.01666): 1.507 ± 0.016 mPa·s | viscosity (293.15 K, 101 kPa, x1 = 0.03452): 2.102 ± 0.025 mPa·s | viscosity (294.15 K, 101 kPa, x1 = 0.00631): 1.136 ± 0.012 mPa·s | viscosity (294.15 K, 101 kPa, x1 = 0.0131): 1.352 ± 0.014 mPa·s | viscosity (295.15 K, 101 kPa, x1 = 0.00631): 1.106 ± 0.012 mPa·s | viscosity (295.15 K, 101 kPa, x1 = 0.0131): 1.315 ± 0.014 mPa·s | viscosity (295.15 K, 101 kPa, x1 = 0.01666): 1.421 ± 0.015 mPa·s | viscosity (295.15 K, 101 kPa, x1 = 0.03452): 1.979 ± 0.021 mPa·s | viscosity (296.15 K, 101 kPa, x1 = 0.00631): 1.079 ± 0.011 mPa·s | viscosity (296.15 K, 101 kPa, x1 = 0.0131): 1.279 ± 0.013 mPa·s | viscosity (297.15 K, 101 kPa, x1 = 0.00631): 1.052 ± 0.011 mPa·s | viscosity (297.15 K, 101 kPa, x1 = 0.0131): 1.245 ± 0.013 mPa·s | viscosity (297.15 K, 101 kPa, x1 = 0.01666): 1.342 ± 0.014 mPa·s | viscosity (297.15 K, 101 kPa, x1 = 0.03452): 1.868 ± 0.019 mPa·s | viscosity (298.15 K, 101 kPa, x1 = 0.00631): 1.026 ± 0.011 mPa·s | viscosity (298.15 K, 101 kPa, x1 = 0.0131): 1.212 ± 0.013 mPa·s | viscosity (299.15 K, 101 kPa, x1 = 0.00631): 1.001 ± 0.01 mPa·s | viscosity (299.15 K, 101 kPa, x1 = 0.0131): 1.18 ± 0.012 mPa·s | viscosity (299.15 K, 101 kPa, x1 = 0.01666): 1.271 ± 0.013 mPa·s | viscosity (299.15 K, 101 kPa, x1 = 0.03452): 1.766 ± 0.018 mPa·s | viscosity (300.15 K, 101 kPa, x1 = 0.00631): 0.9782 ± 0.01 mPa·s | viscosity (300.15 K, 101 kPa, x1 = 0.0131): 1.15 ± 0.012 mPa·s | viscosity (301.15 K, 101 kPa, x1 = 0.00631): 0.9547 ± 0.01 mPa·s | viscosity (301.15 K, 101 kPa, x1 = 0.0131): 1.121 ± 0.012 mPa·s | viscosity (301.15 K, 101 kPa, x1 = 0.01666): 1.205 ± 0.013 mPa·s | viscosity (301.15 K, 101 kPa, x1 = 0.03452): 1.675 ± 0.017 mPa·s | viscosity (302.15 K, 101 kPa, x1 = 0.00631): 0.9328 ± 0.0098 mPa·s | viscosity (302.15 K, 101 kPa, x1 = 0.0131): 1.092 ± 0.011 mPa·s | viscosity (303.15 K, 101 kPa, x1 = 0.00631): 0.9113 ± 0.0095 mPa·s | viscosity (303.15 K, 101 kPa, x1 = 0.0131): 1.066 ± 0.011 mPa·s | viscosity (303.15 K, 101 kPa, x1 = 0.01666): 1.144 ± 0.012 mPa·s | viscosity (303.15 K, 101 kPa, x1 = 0.03452): 1.592 ± 0.016 mPa·s | viscosity (304.15 K, 101 kPa, x1 = 0.00631): 0.891 ± 0.0093 mPa·s | viscosity (304.15 K, 101 kPa, x1 = 0.0131): 1.04 ± 0.011 mPa·s | viscosity (305.15 K, 101 kPa, x1 = 0.00631): 0.8711 ± 0.0091 mPa·s | viscosity (305.15 K, 101 kPa, x1 = 0.0131): 1.015 ± 0.01 mPa·s | viscosity (305.15 K, 101 kPa, x1 = 0.01666): 1.089 ± 0.011 mPa·s | viscosity (305.15 K, 101 kPa, x1 = 0.03452): 1.515 ± 0.015 mPa·s | viscosity (306.15 K, 101 kPa, x1 = 0.00631): 0.8521 ± 0.0089 mPa·s | viscosity (306.15 K, 101 kPa, x1 = 0.0131): 0.9916 ± 0.01 mPa·s | viscosity (307.15 K, 101 kPa, x1 = 0.00631): 0.8342 ± 0.0087 mPa·s | viscosity (307.15 K, 101 kPa, x1 = 0.0131): 0.9686 ± 0.01 mPa·s | viscosity (307.15 K, 101 kPa, x1 = 0.01666): 1.038 ± 0.011 mPa·s | viscosity (307.15 K, 101 kPa, x1 = 0.03452): 1.445 ± 0.014 mPa·s | viscosity (308.15 K, 101 kPa, x1 = 0.00631): 0.8158 ± 0.0085 mPa·s | viscosity (308.15 K, 101 kPa, x1 = 0.0131): 0.9465 ± 0.0098 mPa·s | viscosity (308.15 K, 101 kPa, x1 = 0.037): 1.465 ± 0.017 mPa·s and 1.465 ± 0.038 mPa·s | viscosity (308.15 K, 101.33 kPa, x2 = 0.3047): 2.388 ± 0.11 mPa·s | viscosity (308.15 K, 101.33 kPa, x2 = 0.4017): 2.477 ± 0.11 mPa·s | viscosity (308.15 K, 101.33 kPa, x2 = 0.4974): 2.624 ± 0.12 mPa·s | viscosity (308.15 K, 101.33 kPa, x2 = 0.5973): 2.835 ± 0.13 mPa·s | viscosity (308.15 K, 101.33 kPa, x2 = 0.697): 2.955 ± 0.13 mPa·s | viscosity (308.15 K, 101.33 kPa, x2 = 0.8047): 2.873 ± 0.13 mPa·s | viscosity (308.15 K, 101.33 kPa, x2 = 0.8972): 2.245 ± 0.1 mPa·s | viscosity (308.15 K, 101.33 kPa, x2 = 0.9497): 1.576 ± 0.076 mPa·s | viscosity (309.15 K, 101 kPa, x1 = 0.00631): 0.799 ± 0.0083 mPa·s | viscosity (309.15 K, 101 kPa, x1 = 0.0131): 0.9251 ± 0.0096 mPa·s | viscosity (309.15 K, 101 kPa, x1 = 0.01666): 0.9913 ± 0.01 mPa·s | viscosity (309.15 K, 101 kPa, x1 = 0.03452): 1.381 ± 0.013 mPa·s | viscosity (310.15 K, 101 kPa, x1 = 0.00631): 0.7823 ± 0.0082 mPa·s | viscosity (310.15 K, 101 kPa, x1 = 0.0131): 0.9045 ± 0.0093 mPa·s | viscosity (311.15 K, 101 kPa, x1 = 0.00631): 0.7663 ± 0.008 mPa·s | viscosity (311.15 K, 101 kPa, x1 = 0.0131): 0.8847 ± 0.0091 mPa·s | viscosity (311.15 K, 101 kPa, x1 = 0.01666): 0.9476 ± 0.0097 mPa·s | viscosity (311.15 K, 101 kPa, x1 = 0.03452): 1.322 ± 0.013 mPa·s | viscosity (312.15 K, 101 kPa, x1 = 0.00631): 0.7507 ± 0.0078 mPa·s | viscosity (312.15 K, 101 kPa, x1 = 0.0131): 0.8657 ± 0.0089 mPa·s | viscosity (313.15 K, 101 kPa, x1 = 0.00631): 0.7357 ± 0.0077 mPa·s | viscosity (313.15 K, 101 kPa, x1 = 0.0131): 0.8474 ± 0.0087 mPa·s | viscosity (313.15 K, 101 kPa, x1 = 0.01666): 0.907 ± 0.0092 mPa·s | viscosity (313.15 K, 101 kPa, x1 = 0.03452): 1.268 ± 0.012 mPa·s | viscosity (313.15 K, 101 kPa, x1 = 0.6): 2.465 ± 0.026 mPa·s | viscosity (314.15 K, 101 kPa, x1 = 0.00631): 0.7211 ± 0.0075 mPa·s | viscosity (314.15 K, 101 kPa, x1 = 0.0131): 0.8294 ± 0.0085 mPa·s | viscosity (315.15 K, 101 kPa, x1 = 0.00631): 0.7073 ± 0.0074 mPa·s | viscosity (315.15 K, 101 kPa, x1 = 0.0131): 0.8121 ± 0.0083 mPa·s | viscosity (315.15 K, 101 kPa, x1 = 0.01666): 0.8696 ± 0.0089 mPa·s | viscosity (315.15 K, 101 kPa, x1 = 0.03452): 1.218 ± 0.012 mPa·s | viscosity (316.15 K, 101 kPa, x1 = 0.00631): 0.6935 ± 0.0073 mPa·s | viscosity (316.15 K, 101 kPa, x1 = 0.0131): 0.7957 ± 0.0082 mPa·s | viscosity (317.15 K, 101 kPa, x1 = 0.00631): 0.6799 ± 0.0071 mPa·s | viscosity (317.15 K, 101 kPa, x1 = 0.0131): 0.7795 ± 0.008 mPa·s | viscosity (317.15 K, 101 kPa, x1 = 0.01666): 0.8346 ± 0.0085 mPa·s | viscosity (317.15 K, 101 kPa, x1 = 0.03452): 1.173 ± 0.011 mPa·s | viscosity (318.15 K, 101 kPa, x1 = 0.00631): 0.6676 ± 0.007 mPa·s | viscosity (318.15 K, 101 kPa, x1 = 0.0131): 0.764 ± 0.0079 mPa·s | viscosity (318.15 K, 101 kPa, x1 = 0.03452): 1.151 ± 0.011 mPa·s | viscosity (319.15 K, 101 kPa, x1 = 0.00631): 0.6552 ± 0.0069 mPa·s | viscosity (319.15 K, 101 kPa, x1 = 0.0131): 0.7487 ± 0.0077 mPa·s | viscosity (319.15 K, 101 kPa, x1 = 0.01666): 0.8021 ± 0.0082 mPa·s | viscosity (319.15 K, 101 kPa, x1 = 0.03452): 1.131 ± 0.011 mPa·s | viscosity (320.15 K, 101 kPa, x1 = 0.00631): 0.6431 ± 0.0067 mPa·s | viscosity (320.15 K, 101 kPa, x1 = 0.0131): 0.7347 ± 0.0076 mPa·s | viscosity (320.15 K, 101 kPa, x1 = 0.03452): 1.113 ± 0.01 mPa·s | viscosity (320.65 K, 101 kPa, x1 = 0.03452): 1.104 ± 0.0099 mPa·s | viscosity (321.15 K, 101 kPa, x1 = 0.00631): 0.6313 ± 0.0066 mPa·s | viscosity (321.15 K, 101 kPa, x1 = 0.0131): 0.7202 ± 0.0074 mPa·s | viscosity (321.15 K, 101 kPa, x1 = 0.01666): 0.7716 ± 0.0078 mPa·s | viscosity (321.15 K, 101 kPa, x1 = 0.03452): 1.096 ± 0.01 mPa·s | viscosity (321.65 K, 101 kPa, x1 = 0.03452): 1.088 ± 0.014 mPa·s | viscosity (322.15 K, 101 kPa, x1 = 0.00631): 0.6205 ± 0.0065 mPa·s | viscosity (322.15 K, 101 kPa, x1 = 0.0131): 0.7065 ± 0.0073 mPa·s | viscosity (323.15 K, 101 kPa, x1 = 0.00631): 0.6094 ± 0.0061 mPa·s | viscosity (323.15 K, 101 kPa, x1 = 0.0131): 0.6934 ± 0.0069 mPa·s | viscosity (323.15 K, 101 kPa, x1 = 0.01666): 0.743 ± 0.0076 mPa·s
